Drawing on US11866430B2, “Naphthyridinone compounds useful as T cell activators” (priority 2018, dated 2024), this text covers IC50 for 8 molecules.

Some results are limits rather than exact numbers.

Experiment [1] concerns the target T1, human DGKζ (Homo sapiens (Human), UniProt Q13574). The experiment in a line: DGKζ LIPGLO assay (extruded liposome substrate). Format: biochemical. Conditions: extruded liposome substrate; read-out: DGKζ LIPGLO IC50. The gist of the method: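 Recombinant DGKζ (Sf9-expressed, Ni/SEC/SP-purified) preincubated 10 min with extruded 100 nm PC/DAG/PS liposomes in 50 mM MOPS pH 7.5, 100 mM NaCl, 10 mM MgCl2, 1 μM CaCl2, 1 mM DTT. Started with 300 uM ATP solution (stock, pre-addition); 1 hr reaction. ADP-Glo luminescence; IC50 from 11 concentrations.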

Experiment [2] concerns the target T1, human DGKζ. As to the kind of experiment: DGKζ assay (detergent/lipid micelle substrate). Format: biochemical. To be noted: detergent/lipid micelle substrate; read-out: DGKζ IC50. In outline: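 Full-length human DGKα or DGKζ (C-terminal His tag, Sf9-expressed; 20 nM 4× stock) was preincubated 10 min at room temperature with PS/DAG octyl glucoside micelles in MOPS pH 7.5 buffer with MgCl2, CaCl2 and DTT. It was then started with ATP (300 uM addition) and run for 1 hr, with ADP-Glo luminescence read-out.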

T1 sequence (Q13574 other isoform, or with tags, fused parts or gaps): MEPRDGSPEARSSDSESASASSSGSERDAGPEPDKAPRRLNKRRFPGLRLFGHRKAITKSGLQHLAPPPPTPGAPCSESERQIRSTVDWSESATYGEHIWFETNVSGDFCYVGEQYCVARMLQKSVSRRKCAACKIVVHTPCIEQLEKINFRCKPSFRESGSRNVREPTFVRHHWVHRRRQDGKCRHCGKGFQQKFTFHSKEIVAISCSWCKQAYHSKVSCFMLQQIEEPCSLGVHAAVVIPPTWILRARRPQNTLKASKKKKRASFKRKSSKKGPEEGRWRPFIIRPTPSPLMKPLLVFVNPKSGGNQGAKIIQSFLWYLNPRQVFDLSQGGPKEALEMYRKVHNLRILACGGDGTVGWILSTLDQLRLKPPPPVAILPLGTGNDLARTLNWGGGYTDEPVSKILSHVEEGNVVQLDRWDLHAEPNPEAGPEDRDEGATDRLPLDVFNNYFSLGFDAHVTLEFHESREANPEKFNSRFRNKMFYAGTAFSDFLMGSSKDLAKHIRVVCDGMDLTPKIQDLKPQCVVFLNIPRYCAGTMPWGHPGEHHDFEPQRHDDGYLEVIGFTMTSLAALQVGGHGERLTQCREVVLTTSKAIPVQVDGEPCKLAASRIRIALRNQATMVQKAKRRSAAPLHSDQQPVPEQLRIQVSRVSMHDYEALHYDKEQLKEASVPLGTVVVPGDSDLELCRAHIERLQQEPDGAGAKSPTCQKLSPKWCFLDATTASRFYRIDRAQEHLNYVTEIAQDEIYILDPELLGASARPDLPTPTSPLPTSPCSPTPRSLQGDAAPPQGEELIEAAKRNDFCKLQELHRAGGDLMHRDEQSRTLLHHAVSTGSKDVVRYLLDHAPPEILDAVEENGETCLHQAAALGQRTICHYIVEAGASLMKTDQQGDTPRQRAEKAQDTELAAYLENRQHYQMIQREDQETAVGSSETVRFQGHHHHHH

The IC50 is the concentration needed to halve the response being measured. `Cc1ccc(CN2CCN(c3c(C#N)c(=O)n(C)c4ccc(Br)nc34)CC2)c(O)c1` [Example 372, 6-bromo-4-{4-[(2-hydroxy-4-methylphenyl)methyl]piperazin-1-yl}-1-methyl-2-oxo-1,2-dihydro-1,5-naphthyridine-3-carbonitrile]: the IC50 turned out to be 8.8 µM at human DGKζ [1] and 60 µM on human DGKζ [2].

With `Cc1ccc(CN2CCN(c3c(C#N)c(=O)n(C)c4ccc(Cl)nc34)CC2)cc1` [Example 386, 6-chloro-1-methyl-4-{4-[(4-methylphenyl)methyl]piperazin-1-yl}-2-oxo-1,2-dihydro-1,5-naphthyridine-3-carbonitrile], the figures for the IC50 on human DGKζ [1] and on human DGKζ [2] were 6.7 µM and 190 µM, respectively.

For the molecule `Cc1ccc2c(n1)c(N1CCN(Cc3cccc(Cl)c3O)CC1)c(C#N)c(=O)n2C` [Example 389, 4-{4-[(3-chloro-2-hydroxyphenyl)methyl]piperazin-1-yl}-1,6-dimethyl-2-oxo-1,2-dihydro-1,5-naphthyridine-3-carbonitrile], the figures for the IC50 on human DGKζ [1] and on human DGKζ [2] were 9.4 µM and 130 µM, respectively.

`Cc1cccc(CN2CCN(c3c(C#N)c(=O)n(C)c4ccc(Cl)nc34)CC2)c1O` [Example 391, 6-chloro-4-{4-[(2-hydroxy-3-methylphenyl)methyl]piperazin-1-yl}-1-methyl-2-oxo-1,2-dihydro-1,5-naphthyridine-3-carbonitrile]: the results for the IC50 on human DGKζ [1] and on human DGKζ [2] were 2.1 µM and 36 µM, respectively.

Consider `Cn1c(=O)c(C#N)c(N2CCN(Cc3cccc4ccccc34)CC2)c2nc(C#N)ccc21` [Example 404, 5-methyl-8-{4-[(naphthalen-1-yl)methyl]piperazin-1-yl}-6-oxo-5,6-dihydro-1,5-naphthyridine-2,7-dicarbonitrile], for which the IC50 on human DGKζ [1] was determined as 3.9 µM; on human DGKζ [2], 63 µM.

`Cc1ccc(CN2CCN(c3c(C#N)c(=O)n(C)c4ccc(Cl)nc34)CC2)c(F)c1` [Example 423, 6-chloro-4-{4-[(2-fluoro-4-methylphenyl)methyl]piperazin-1-yl}-1-methyl-2-oxo-1,2-dihydro-1,5-naphthyridine-3-carbonitrile]: the IC50 was 33 µM at human DGKζ [1] and > 81 µM at human DGKζ [2].

Turning to `COc1cc(C#N)ccc1CN1CCN(c2c(C#N)c(=O)n(C)c3ccc(Cl)nc23)CC1` [Example 424, 6-chloro-4-{4-[(4-cyano-2-methoxyphenyl)methyl]piperazin-1-yl}-1-methyl-2-oxo-1,2-dihydro-1,5-naphthyridine-3-carbonitrile], the half-maximal inhibitory concentration (IC50) was 27 µM at human DGKζ [1] and > 240 µM on human DGKζ [2].

Consider `Cn1c(=O)c(C#N)c(N2CCN(C(C)(C)c3ccc(F)cc3)CC2)c2nc(Cl)ccc21` [Example 425, 6-chloro-4-{4-[2-(4-fluorophenyl)propan-2-yl]piperazin-1-yl}-1-methyl-2-oxo-1,2-dihydro-1,5-naphthyridine-3-carbonitrile], for which the IC50 at human DGKζ [1] and at human DGKζ [2] was > 240 µM throughout.
